# Test results from ChEMBL document CHEMBL5137036, “Design and synthesis of highly TRAIL expression HDAC inhibitors based on ONC201 to promote apoptosis of colorectal cancer” (Eur J Med Chem, 2022).
# Active and inactive are the calls of the source. The rule behind the calls is not given here.
# Experiments:
# HCT-116 [1] = assay: Induction of apoptosis in human HCT-116 cells assessed as early apoptotic cells at 0.5 uM incubated for 24 hrs by AnnexinV-FITC/PI staining based flow cytometry (reference value: 0.93 %); assay type: functional
# HCT-116 [2] = assay: Induction of apoptosis in human HCT-116 cells assessed as decrease in Bcl2 protein expression incubated for 12 hrs by Western blot analysis; assay type: functional, cell-based; conditions: dose 0.125-0.5 µM, DDE = dose-dependent effect
# HCT-116 [3] = assay: Effect on ac-H3 protein expression in human HCT-116 cells incubated for 12 hrs by Western blot analysis; assay type: functional, cell-based; conditions: dose 0.125-0.5 µM, DDE = dose-dependent effect
# HCT-116 [4] = assay: Antiproliferative activity against human HCT-116 cells assessed as inhibition of cell growth incubated for 72 hrs by luminescence based analysis; assay type: functional; conditions: HCT-116, 72 h
# HCT-116 [5] = assay: Induction of apoptosis in human HCT-116 cells assessed as late apoptotic cells at 0.125 uM incubated for 24 hrs by AnnexinV-FITC/PI staining based flow cytometry (reference value: 0.82 %); assay type: functional
# [6] = Toxicity in BALB/c mouse xenografted with human HCT-116 cells assessed as morphological changes in kidney at 12.5 to 25 mg/kg, po qd administered for 21 days by H & E staining based microscopic analysis; assay type: organism-based; conditions: in vivo, 504 h, dose 12.5-25 mg/kg, time 21 day
# HCT-116 [7] = assay: Effect on TRAIL protein expression in human HCT-116 cells incubated for 12 hrs by Western blot analysis; assay type: functional, cell-based; conditions: dose 0.125-0.5 µM, DDE = dose-dependent effect
# HCT-116 [8] = assay: Induction of apoptosis in human HCT-116 cells assessed as viable cells at 0.5 uM incubated for 24 hrs by AnnexinV-FITC/PI staining based flow cytometry (reference value: 93.64%); assay type: functional; conditions: read-out: Activity
# HCT-116 [9] = assay: Antitumor activity against human HCT-116 cells xenografted in BALB/c mouse assessed as reduction in tumor growth at 50 mg/kg, po qd administered for 3 weeks and measured every 3 days by vernier caliper analysis; assay type: functional, organism-based
# HCT-116 [10] = assay: Effect on HDAC1 protein expression in human HCT-116 cells incubated for 12 hrs by Western blot analysis; assay type: functional, cell-based; conditions: dose 0.125-0.5 µM, DDE = dose-dependent effect
# HCT-116 [11] = assay: Upregulation of TRAIL mRNA expression in human HCT-116 cells at 0.25 uM incubated for 12 hrs by RT-PCR analysis; assay type: functional, cell-based
# HepG2 = assay: Antiproliferative activity against human HepG2 cells assessed as inhibition of cell growth incubated for 72 hrs by luminescence based analysis; assay type: functional; conditions: HepG2, 72 h
# [12] = Toxicity in BALB/c mouse xenografted with human HCT-116 cells assessed as reduction in body weight at 12.5 to 25 mg/kg, po qd administered for 3 weeks; assay type: organism-based; conditions: in vivo, 504 h, dose 12.5-25 mg/kg
# HCT-116 [13] = assay: Induction of apoptosis in human HCT-116 cells assessed as dead cells at 0.125 uM incubated for 24 hrs by AnnexinV-FITC/PI staining based flow cytometry (reference value: 4.62 %); assay type: functional
# HCT-116 [14] = assay: Induction of apoptosis in human HCT-116 cells assessed as viable cells at 0.125 uM incubated for 24 hrs by AnnexinV-FITC/PI staining based flow cytometry (reference value: 93.64%); assay type: functional; conditions: read-out: Activity
# HCT-116 [15] = assay: Induction of apoptosis in human HCT-116 cells assessed as increase in caspase-8 protein expression incubated for 12 hrs by Western blot analysis; assay type: functional, cell-based; conditions: dose 0.125-0.5 µM, DDE = dose-dependent effect
# [16] = Toxicity in BALB/c mouse xenografted with human HCT-116 cells assessed as morphological changes in spleen at 12.5 to 25 mg/kg, po qd administered for 21 days by H & E staining based microscopic analysis; assay type: organism-based; conditions: in vivo, 504 h, dose 12.5-25 mg/kg, time 21 day
# HCT-116 [17] = assay: Induction of apoptosis in human HCT-116 cells assessed as dead cells at 0.25 uM incubated for 24 hrs by AnnexinV-FITC/PI staining based flow cytometry (reference value: 4.62 %); assay type: functional
smiles,measurement,setting,value
COc1ccccc1CN1C(=O)C2=C(CCN(Cc3ccc(C(=O)Nc4ccccc4N)cc3)C2)N2CCN=C12,Activity,HCT-116 [1],1.22%
same,Activity,HCT-116 [2],Dde
same,Activity,HCT-116 [3],Dde
same,IC50,HCT-116 [4],653 nM
same,Activity,HCT-116 [5],1.35%
same,Activity,[6],Non-Toxic
same,Activity,HCT-116 [7],Dde
same,viability at 0.5 µM,HCT-116 [8],87.2%
same,Activity,HCT-116 [9],Active
same,Activity,HCT-116 [10],Dde
same,Activity,HCT-116 [11],Active
same,IC50,HepG2,2670 nM
same,Activity,[12],Non-Toxic
same,Activity,HCT-116 [13],6.33%
same,viability at 0.125 µM,HCT-116 [14],91.5%
same,Activity,HCT-116 [15],Dde
same,Activity,[16],Non-Toxic
same,Activity,HCT-116 [17],4.06%
